Data set [1] relates to progesterone receptor (PR) in MCF-7 cells. The data set can be described thus: Western blot analysis of PR level in MCF-7 cells. In kind it is cell-based, human. Conditions: MCF-7 cells, from 10 μM upwards. As for the experimental part:
In an analogous manner, a set of experiments was preformed with MCF-7 cells for determining the level of PR upon incubation with varying concentrations of 1,3-cPP for a period of up to 11 days. Similar to the augmentation observed for ER-α, an increase of up to 2.8 and 2.2 fold expression of the wild type PR (MW 98,000), was observed from 10 μM 1,3-cPP and upwards on days 8 and 11, respecively (FIGS. 3A-D).
(§1) Breast Cancer Cells. The human breast cancer MCF-7 cell line were obtained from Prof. Hadassa Degani, of Weizmann Institute of Science, Rehovot, Israel. The cells were grown as monolayers in high glucose DMEM supplemented with 6% fetal calf serum and combined antibiotics. Human breast cancer T47D cells, clones 8 (ER^loPR^lo) and 11 (ER^+PR^+) were obtained from Prof Iafa Keydar, Tel-Aviv university and were grown in DMEM supplemented with 10% fetakl calf serum antibiotics. K562 erythroleukemia cells were obtained from Dr. Alfa Peled of Weizmann Institute of Science, Rehovot, Israel. These cells were grown in RPMI 1640 containing 10% fetal calf serum and antibiotics. All lines were grown at 37° C. in the presence of 5% CO2. The absence of Mycoplasma contamination was monitored by a Mycotrim TC test (Irvine Scientific, Santa Ana, Calif.) carried out once every 3 months.
(§2) For ER-α protein analysis, MCF-7 and T47D cells were cultured in 60×15 mm petri dishes. From the second day of culture onward, the cells were treated with various concentrations of 1,3cPP for up to 14 days. At the end of the incubation period, the medium was aspirated and the cells were washed 3 times with cold (4° C.) PBS. […] The protein concentration in each sample (1.5-4 mg/ml) was determined using the Coomassie Protein Assay (Pierce, Rockford, Ill.) according to the manufacturer's instructions. […] Bound antibodies were detected by horseradish peroxidase-conjugated goat anti-rabbit IgG, (Transduction Laboratories, Lexington, Ky. using the ECL detection method. Band densities were quantified by densitometry (Biorad model GS-690 Imaging densitometer) using Molecular Analyst software.
On the technique in general: A western blot detects proteins with antibodies after separation by electrophoresis.

A further data set deals with ER-α in T47D cells. In words: Western blot analysis of ER-α level in T47D cells. In kind it is cell-based, human. The settings on record: 15 μM. The method, then: (§3) Turning to FIG. 1 there are shown Western blot analyses showing the effect of 1,3cPP on the expression level of ER-α. In the ER-α assay, MCF-7 cells were incubated with 1-100 μM 1,3cPP for up to 14 days. The analysis indicates a relative increase in the level of wild type ER-α receptor (MW 70,000) with either an increase in 1,3cPP concentration or time of incubation. On days 6 and 14, a nearly 2-fold and 3-fold increase were observed, respectively (FIGS. 1A, C, D, F). […] This band could be related to one of deleted exons D3-4 (MW 49,000), D4 (MW 54,000), or D7 (MW 51,000) ER-α variants.
Breast Cancer Cells. The human breast cancer MCF-7 cell line were obtained from Prof. […] The absence of Mycoplasma contamination was monitored by a Mycotrim TC test (Irvine Scientific, Santa Ana, Calif.) carried out once every 3 months.
For ER-α protein analysis, MCF-7 and T47D cells were cultured in 60×15 mm petri dishes. […] The protein concentration in each sample (1.5-4 mg/ml) was determined using the Coomassie Protein Assay (Pierce, Rockford, Ill.) according to the manufacturer's instructions. […] Bound antibodies were detected by horseradish peroxidase-conjugated goat anti-rabbit IgG, (Transduction Laboratories, Lexington, Ky. using the ECL detection method. Band densities were quantified by densitometry (Biorad model GS-690 Imaging densitometer) using Molecular Analyst software.

The subject of data set [2] is estrogen receptor-α (ER-α) in MCF-7 cells. The data set can be described thus: Western blot analysis of ER-α level in MCF-7 cells. In kind it is cell-based, human. The settings on record: MCF-7 cells; for increase in the level of wild type ER-α receptor (MW 70,000): 1-100 μM 1,3cPP. The method, then: as §3, §1
as §2, with “PBS. The cells were then gently scraped off using a rubber policeman in 0.25 ml of lysis buffer composed of 50 mM β-glycerophosphate, 1 mM DTT, 1.5 mM EGTA, 1 mM EDTA, 1% (Octylphenoxy)polyethoxyethanol (IGEPAL, Sigma, St. Louis, Mo.), a nonionic detergent, and a cocktail of protease inhibitors, including 1 mM phenylmethylsulfonyl fluoride (PMSF), 1 mM benzamidine, 10 μg/ml aprotinin, 10 μg/ml leupeptin, and 2 μg/ml pepstanin, as well as 1 mM sodium orthovanadate (Sigma, St. Louis, Mo.) as a phosphatase inhibitor.” for “PBS.”

The next data set relates to MCF-7 cells. The data set can be described thus: Anti-tumor assay, MCF-7 tumors in athymic CD-1 mice. In kind it is in vivo. As for the experimental part:
To test this possibility, we followed the procedure of Kurokawa et al. Female athymic outbred CD-1 mice were implanted with a slow release estradiol tablet and injected intra-fat-pad (i.f.p.) in the lower right abdomen 3×10^6 viable MCF-7 cells (see Materials and Methods). Twelve days later, when the tumors became palpable, mice were randomly allocated into two groups, each with six mice. The control group was injected with PBS i.p. and the treatment group was injected with 0.5 mg 1,3cPP dissolved in PBS i.p. in the lower left abdomen on day 1,3,6, and 8. Tumor size was then measured 2-3 times a week. In the control group, the tumors grew continuously and reached an average size of >1250 mm^3. The origin of the large variation in tumor size was due to one mouse with a relatively small tumor in this group.
Female athymic outbred CD-1 mice 12 weeks of age were obtained from the animal breeding center of our Institute. Animals were maintained and treated according to “Principles of laboratory animal care”, (NIH publication no. 85-23) under the supervision of the Council for Experiments on animals, of our Institute. Mice were anesthetized and implanted subcutaneously with a 0.25 mg, 21-day release 17β-estradiol pellet (Innovative Research of America, Sarasota, Fla.) in the dorsal space and injected intra-fat-pad (i.f.p.) in the lower right abdomen with 3×10^6 MCF-7 cells. Twelve days later, when the tumors became palpable, mice were randomly allocated into two groups, each with 6 mice. The control group was injected with PBS and the treatment group was injected with 0.5 mg 1,3cPP in PBS i.p. in the lower left abdomen on day 1,3,6, and 8. Tumor diameters were serially measured with calipers assuming a hemiellipsoid shape, where volume=[…]×(length/2)×(width/2)×(thickness/2).

Where [3] appears, read: 0.5 mg i.p. on day 1,3,6 and 8, athymic CD-1 mice.

With `O=P1(O)OCCCO1` [1,3-cPP, 1,3-cyclic propanediol phosphate], the “increase in expression of the wild type PR (MW 98,000)” value in data set [1] (day 8) is listed as “up to 2.8 fold”; in data set [1] (day 11) it was not above 2.2 fold. Moreover, the “level of wild type ER-α receptor” value with ER-α in T47D cells (T47D (ER+PR+) clone 11 cells, 6 days) was “sharp increase”. For the same compound, in the data set on ER-α in T47D cells (T47D clone 8 (ERlo PRlo), 3 days incubation), the “expression of variant ER-α (MW≈40,000)” value is “sharp increase”. Also, the “increase in the level of wild type ER-α receptor (MW 70,000)” value in data set [2] (day 6, Western blot densitometry) was approximately 2 fold; in data set [2] (day 14, Western blot densitometry), approximately 3 fold. The “increase in the intensity of a ER variant with an approximate MW of 50,000” value in data set [2] (day 11, Western blot) amounted to 5 fold. For the same compound, the “changes in appearance, body weight or behavior upon injection” value in the data set with MCF-7 cells (setting [3]) was “no changes in appearance, body weight or behavior”. For the same compound, in the data set with MCF-7 cells (setting [3]), the “toxic effects during the course of the experiment” value is “No observable toxic effects”. Besides, the “tumor size, treatment versus control group” value in the data set with MCF-7 cells (0.5 mg i.p. on day 1,3,6 and 8, day 36 (P=0.032) and day 43 (P=0.032), MCF-7 tumors in athymic CD-1 mice) is given as “significant difference”.
